Measurements taken from patent publication US9273057B2 (Bristol-Myers Squibb Company, priority 2012, dated 2016).
pIC50: −log10 of the molar value. Counter-ions that a name gives are not always drawn.

target: CK2A1 (CK2α/β) (Homo sapiens, UniProt P68400); assay: CK2 kinase assay, CK2A1 (CK2α/β); type: biochemical; settings: Table A; read-out: CK2A1 (CK2α/β) (IC50)
Sequence (P68400 whole entry, species assumed): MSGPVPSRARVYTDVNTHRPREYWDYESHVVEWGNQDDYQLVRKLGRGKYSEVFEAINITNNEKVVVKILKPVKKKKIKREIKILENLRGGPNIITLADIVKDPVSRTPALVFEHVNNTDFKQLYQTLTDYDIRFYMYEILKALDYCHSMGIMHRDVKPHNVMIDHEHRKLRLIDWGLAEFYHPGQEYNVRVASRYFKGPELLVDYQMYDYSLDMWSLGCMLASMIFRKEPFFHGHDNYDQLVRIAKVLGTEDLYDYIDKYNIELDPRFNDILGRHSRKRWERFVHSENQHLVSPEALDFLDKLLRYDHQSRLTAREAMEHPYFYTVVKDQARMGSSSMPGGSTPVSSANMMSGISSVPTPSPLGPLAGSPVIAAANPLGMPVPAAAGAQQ
Sequence (P67870 whole entry partner, species assumed): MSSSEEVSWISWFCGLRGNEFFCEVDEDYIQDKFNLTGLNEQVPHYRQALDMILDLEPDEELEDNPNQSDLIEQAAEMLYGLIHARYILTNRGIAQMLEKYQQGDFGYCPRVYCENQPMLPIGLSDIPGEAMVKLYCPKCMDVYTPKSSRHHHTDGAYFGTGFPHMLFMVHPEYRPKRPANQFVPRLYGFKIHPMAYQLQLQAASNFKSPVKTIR

| Structure (SMILES) | pIC50 |
| --- | --- |
| CC1(N2CCOCC2)CCN(c2cc(C#N)cc(Nc3nc(NC4CC4)c4ncc(C#N)n4n3)c2Cl)CC1 [Example 304, 2-((2-chloro-5-cyano-3-(4-methyl-4-morpholinopiperidin-1-yl)phenyl)amino)-4-(cyclopropylamino)imidazo[2,1-f][1,2,4]triazine-7-carbonitrile, HCl] | 9.10 |
| N#Cc1cc(Nc2nc(NC3CC3)c3ncc(C#N)n3n2)c(Cl)c(N2CCN(C(=O)C3CNCCO3)CC2)c1 (racemic) [Example 94, (+/−) 2-(2-chloro-5-cyano-3-(4-(morpholine-2-carbonyl)piperazin-1-yl)phenylamino)-4-(cyclopropylamino) imidazo[1,2-f][1,2,4] triazine-7-carbonitrile] | 9.02 |
| CCNc1nc(Nc2cc(C#N)cc(C3CCN(CC(C)(C)O)CC3)c2Cl)nn2c(C#N)cnc12 [Example 353, 2-((2-chloro-5-cyano-3-(1-(2-hydroxy-2-methylpropyl)-4-piperidinyl)phenyl)amino)-4-(ethylamino)imidazo[2,1-f][1,2,4]triazine-7-carbonitrile] | 9.06 |
| CC(CC(C)N1CC(C)(O)C1)c1cc(Cl)c(Nc2nc(NC3CC3)c3ncc(C#N)n3n2)cc1C#N (stereo not shown) [Example 736, 2-({2-chloro-5-cyano-4-[4-(3-hydroxy-3-methylazetidin-1-yl)pentan-2-yl]phenyl}amino)-4-(cyclopropylamino)imidazo [2,1-f][1,2,4]triazine-7-carbonitrile] | 8.31 |
| CCNc1nc(Nc2ccc3c(c2)c(C#N)cn3C2CCN(C3CN(C[C@@H](C)O)C3)CC2)nn2c(C#N)cnc12 [Example 833, (R)-2-((3-cyano-1-(1-(1-(2-hydroxypropyl)azetidin-3-yl)piperidin-4-yl)-1H-indol-5-yl)amino)-4-(ethylamino)imidazo[2,1-f][1,2,4]triazine-7-carbonitrile] | 8.74 |
| COC(=O)Nc1cc(Nc2nc(NC3CC3)c3ncc(C#N)n3n2)c(Cl)c(N2CCC(N3CCOCC3)CC2)c1 [Example 205, methyl (4-chloro-3-((7-cyano-4-(cyclopropylamino)imidazo[2,1-f][1,2,4]triazin-2-yl)amino)-5-(4-(4-morpholinyl)-1-piperidinyl)phenyl)carbamate] | 8.71 |
| CCNc1nc(Nc2cc(C#N)cc(N3CCC4(CCN(C)C4=O)CC3)c2Cl)nn2c(C#N)cnc12 (racemic) [Example 784, (+/−)-2-((2-chloro-5-cyano-3-(2-methyl-1-oxo-2,8-diazaspiro[4.5]decan-8-yl)phenyl)amino)-4-(ethylamino)imidazo[2,1-f][1,2,4]triazine-7-carbonitrile] | 8.73 |
| CCN(C1CCN(c2cc(C#N)cc(Nc3nc(NC4CC4)c4ncc(C#N)n4n3)c2Cl)CC1)C1CC(=O)N(C)C1 (stereo not shown) [Example 715, 2-[(2-chloro-5-cyano-3-{4-[ethyl(1-methyl-5-oxopyrrolidin-3-yl)amino]piperidin-1-yl}phenyl)amino]-4-(cyclopropylamino)imidazo [2,1-f][1,2,4]triazine-7-carbonitrile] | 7.97 |
| CC(=O)N1CCC[C@H]1C(=O)N1CCN(c2cc(C#N)cc(Nc3nc(NC4CC4)c4ncc(C#N)n4n3)c2Cl)CC1 [Example 83, 2-((3-(4-(1-acetyl-L-prolyl)-1-piperazinyl)-2-chloro-5-cyanophenyl)amino)-4-(cyclopropylamino) imidazo[2,1-f][1,2,4] triazine-7-carbonitrile] | 9.20 |
| CC(=O)N1CC(N2CCN(c3cc(C#N)cc(Nc4nc(NC5CC5)c5ncc(C#N)n5n4)c3F)CC2)C1 [Example 551, 2-((3-(4-(1-acetylazetidin-3-yl)piperazin-1-yl)-5-cyano-2-fluorophenyl)amino)-4-(cyclopropylamino)imidazo[2,1-f][1,2,4]triazine-7-carbonitrile] | 8.91 |
| COC(=O)Nc1cc(Nc2nc(NC3CC3)c3ncc(C#N)n3n2)c(Cl)c(N2CC(N3CCN(C)CC3)C2)c1 [Example 203, methyl (4-chloro-3-((7-cyano-4-(cyclopropylamino)imidazo[2,1-f][1,2,4]triazin-2-yl)amino)-5-(3-(4-methyl-1-piperazinyl)-1-azetidinyl)phenyl)carbamate] | 8.75 |
| CCNc1nc(Nc2ccc3c(c2)c(C#N)cn3C2CCN([C@H]3COC[C@@H]3O)CC2)nn2c(C#N)cnc12 [Example 827, 2-((3-cyano-1-(1-((3S,4R)-4-hydroxytetrahydrofuran-3-yl)piperidin-4-yl)-1H-indol-5-yl)amino)-4-(ethylamino)imidazo[2,1-f][1,2,4]triazine-7-carbonitrile] | 9.12 |
| CN1CCCC(C(=O)N2CCN(c3cc(C#N)cc(Nc4nc(NC5CC5)c5ncc(C#N)n5n4)c3Cl)CC2)C1 (racemic) [Example 92, (+/−) 2-((2-chloro-5-cyano-3-(4-((1-methyl-3-piperidinyl)carbonyl)-1-piperazinyl)phenyl)amino)-4-(cyclopropylamino) imidazo[2,1-f][1,2,4] triazine-7-carbonitrile] | 8.95 |
| COC[C@H](NC[C@H]1CN(c2cc(C#N)cc(Nc3nc(NC4CC4)c4ncc(C#N)n4n3)c2Cl)CCO1)C1CC1 [Example 704, 2-({2-chloro-5-cyano-3-[(2S)-2-({[(1R)-1-cyclopropyl-2-methoxyethyl]amino}methyl)morpholin-4-yl]phenyl}amino)-4-(cyclopropylamino)imidazo[2,1-f][1,2,4]triazine-7-carbonitrile] | 8.85 |

Results, then the compound that gave them:

| pIC50 | Structure (SMILES) |
| --- | --- |
| 9.03 | C[N+]1(C)CCN(C2CN(c3cc(C#N)cc(Nc4nc(NC5CC5)c5ncc(C#N)n5n4)c3Cl)C2)CC1 [Example 170, 4-(1-(2-chloro-5-cyano-3-((7-cyano-4-(cyclopropylamino)imidazo [2,1-f][1,2,4]triazin-2-yl)amino)phenyl)-3-azetidinyl)-1,1-dimethylpiperazin-1-ium] |
| 9.24 | CNC1CCN(c2cc(C#N)cc(Nc3nc(NC4CC4)c4ncc(C#N)n4n3)c2Cl)C1 (racemic) [Example 28, (+/−) 2-((2-chloro-5-cyano-3-(3-(methylamino)-1-pyrrolidinyl)phenyl)amino)-4-(cyclopropylamino)imidazo [2,1-f][1,2,4]triazine-7-carbonitrile] |
| 9.46 | N#Cc1cc(Nc2nc(NC3CC3)c3ncc(C#N)n3n2)c(Cl)c(C2(F)COC2)c1 [Example 660, 2-((2-chloro-5-cyano-3-(3-fluorooxetan-3-yl)phenyl)amino)-4-(cyclopropylamino)imidazo[2,1-f][1,2,4]triazine-7-carbonitrile] |
| 8.43 | N#Cc1cc(Nc2nc(NC3CC3)c3ncc(C#N)n3n2)c(Cl)c(C(O)C(F)(F)F)c1 (racemic) [Example 680, (+/−)-2-((2-chloro-5-cyano-3-(2,2,2-trifluoro-1-hydroxyethyl)phenyl)amino)-4-(cyclopropylamino)imidazo[2,1-f][1,2,4]triazine-7-carbonitrile] |
| 9.15 | COC(=O)N[C@H]1CN(c2cc(C#N)cc(Nc3nc(NC4CC4)c4ncc(C#N)n4n3)c2Cl)C[C@H]1OC [Example 14, methyl ((3S,4R)-1-(2-chloro-5-cyano-3-((7-cyano-4-(cyclopropylamino)imidazo [2,1-f][1,2,4]triazin-2-yl)amino)phenyl)-4-methoxy-3-pyrrolidinyl)carbamate] |
| 8.78 | N#Cc1cc(Nc2nc(NC3CC3)c3ncc(C#N)n3n2)c(Cl)c(N2CCN3CCOC[C@H]3C2)c1 [Example 308, (R)-2-((2-chloro-5-cyano-3-(hexahydropyrazino[2,1-c][1,4]oxazin-8(1H)-yl)phenyl)amino)-4-(cyclopropylamino)imidazo[2,1-f][1,2,4]triazine-7-carbonitrile] |
| 9.06 | N#Cc1cc(Nc2nc(NC3CC3)c3ncc(C#N)n3n2)c(Cl)c(C2CN(C3COC3)C2)c1 [Example 358, 2-((2-chloro-5-cyano-3-(1-(oxetan-3-yl)azetidin-3-yl)phenyl)amino)-4-(cyclopropylamino)imidazo[2,1-f][1,2,4]triazine-7-carbonitrile] |
| 8.61 | CNC(=O)CN1CC2(CCN(c3cc(C#N)cc(Nc4nc(NC5CC5)c5ncc(C#N)n5n4)c3Cl)CC2)C1 [Example 799, 2-(7-(2-chloro-5-cyano-3-((7-cyano-4-(cyclopropylamino)imidazo[2,1-f][1,2,4]triazin-2-yl)amino)phenyl)-2,7-diazaspiro[3.5]nonan-2-yl)-N-methylacetamide] |
| 9.03 | N#Cc1cc(Nc2nc(NC3CC3)c3ncc(C#N)n3n2)c(Cl)c(N2CCN(C(CO)CO)CC2)c1 [Example 539, 2-((2-chloro-5-cyano-3-(4-(1,3-dihydroxypropan-2-yl)piperazin-1-yl)phenyl)amino)-4-(cyclopropylamino)imidazo[2,1-f][1,2,4]triazine-7-carbonitrile] |
| 8.67 | CCN1CC2(CCN(c3cc(C#N)cc(Nc4nc(NC5CC5)c5ncc(C#N)n5n4)c3Cl)CC2)C1 [Example 801, 2-((2-chloro-5-cyano-3-(2-ethyl-2,7-diazaspiro[3.5]nonan-7-yl)phenyl)amino)-4-(cyclopropylamino)imidazo[2,1-f][1,2,4]triazine-7-carbonitrile] |
| 9.10 | CC1(O)CCN(C2CN(c3cc(C#N)cc(Nc4nc(NC5CC5)c5ncc(C#N)n5n4)c3Cl)C2)CC1 [Example 157, 2-((2-chloro-5-cyano-3-(3-(4-hydroxy-4-methyl-1-piperidinyl)-1-azetidinyl)phenyl)amino)-4-(cyclopropylamino)imidazo [2,1-f][1,2,4]triazine-7-carbonitrile] |
| 9.00 | CCNc1nc(Nc2cc(C#N)cc(CCCN3CCN(C)CC3)c2Cl)nn2c(C#N)cnc12 [Example 578, 2-((2-chloro-5-cyano-3-(3-(4-methylpiperazin-1-yl)propyl)phenyl)amino)-4-(ethylamino)imidazo[2,1-f][1,2,4]triazine-7-carbonitrile] |
| 9.20 | CN(CCN)c1cc(C#N)cc(Nc2nc(NC3CC3)c3ncc(C#N)n3n2)c1Cl [Example 50] |
| 9.24 | CN(CCC#N)Cc1cc(C#N)cc(Nc2nc(NC3CC3)c3ncc(C#N)n3n2)c1Cl [Example 464, 2-[(2-chloro-5-cyano-3-{[(2-cyanoethyl)(methyl)amino]methyl}phenyl)amino]-4-(cyclopropylamino)imidazo[2,1-f][1,2,4]triazine-7-carbonitrile] |
